Activity calls are given as the source filed them.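 Rule for the calls: active = none, because compounds meeting the potency rule were filed inconclusive for hitting several proteins; inconclusive = EC50 under 20 µM with over 15% binding change; inactive = the rest.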
Experiments:
Assay in all cases: small GTPase panel, fluorescent GTP binding blockade – biochemical, Mg buffer, constant GTP, RhoA, Rac1, Cdc42, mechanism study for Ras-family GTPase inhibitor project, profiling panel (AID 2393);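 for EC50: EC50 marks half change in GTP binding and may reflect gain or loss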
Conditions in all cases: GST-GTPase beads, BODIPY-GTP binding, flow cytometry; for GTP binding remaining (% of DMSO): at 100 µM (top of the series)
[1] = molecular target: Cell division control protein 42 homolog (Homo sapiens) (UniProt P60953)
[2] = molecular target: Ras-related C3 botulinum toxin substrate 1 (Homo sapiens) (UniProt P63000)
[3] = molecular target: Transforming protein RhoA (Homo sapiens) (UniProt P61586)

| SMILES | EC50 ([1]; Cdc42ACT) | EC50 ([1]; Cdc42WT) | GTP binding remaining (% of DMSO) ([2]; Rac1ACT) | GTP binding remaining (% of DMSO) ([2]; Rac1WT) | GTP binding remaining (% of DMSO) ([3]; RhoACT) | GTP binding remaining (% of DMSO) ([3]; RhoWT) | GTP binding remaining (% of DMSO) ([1]; Cdc42ACT) | GTP binding remaining (% of DMSO) ([1]; Cdc42WT) | EC50 ([2]; Rac1ACT) | EC50 ([2]; Rac1WT) | EC50 ([3]; RhoWT) | EC50 ([3]; RhoACT) |
| --- | --- | --- | --- | --- | --- | --- | --- | --- | --- | --- | --- | --- |
| COc1ccc(C2CC(c3cccs3)=NN2c2ccc(S(N)(=O)=O)cc2)cc1 (stereo not given) | 4.28 µM | 4.08 µM | inactive | inactive | inactive | inactive |  |  |  |  |  |  |
| NS(=O)(=O)c1ccc(N2N=C(c3ccccc3)CC2c2ccccc2Cl)cc1 (stereo not given) |  | inactive | inactive | inactive | inactive | inactive | inactive |  |  |  |  |  |
| COc1ccc(C2CC(c3ccccc3C)=NN2c2ccc(S(N)(=O)=O)cc2)cc1 (stereo not given) |  |  | inactive | inactive | inactive | inactive | inactive | inactive |  |  |  |  |
| COc1ccc(C2CC(C(C)(C)C)=NN2c2ccc(S(N)(=O)=O)cc2)cc1 (stereo not given) | 16.4 µM | 14.4 µM |  | inactive | inactive | inactive |  |  | inactive |  |  |  |
| COc1ccc(C2CC(c3cccc(C)c3)=NN2c2ccc(S(N)(=O)=O)cc2)cc1 (stereo not given) | 1.85 µM | 2.11 µM |  | inactive | inactive | inactive |  |  | inactive |  |  |  |
| Cc1cccc(C2CC(c3ccccc3)=NN2c2ccc(S(N)(=O)=O)cc2)c1 (stereo not given) | 8.35 µM | 7.7 µM | inactive | inactive | inactive | inactive |  |  |  |  |  |  |
| COc1ccc(-c2cc(CCC(=O)N3CCN(c4cc(C)ccc4C)CC3)on2)cc1 | 2.78 µM | 0.97 µM | inactive |  | inactive |  |  |  |  | 2.76 µM | 1.3 µM |  |
| COc1ccc(C2CC(c3ccc(N(C)C)cc3)=NN2c2ccc(S(N)(=O)=O)cc2)cc1 (stereo not given) |  |  | inactive | inactive | inactive | inactive | inactive | inactive |  |  |  |  |
| COc1ccc(C2CC(c3ccccc3)=NN2c2ccc(S(N)(=O)=O)cc2)cc1 (stereo not given) | 2.73 µM | 2.5 µM |  | inactive | inactive | inactive |  |  | inactive |  |  |  |
| NS(=O)(=O)c1ccc(N2N=C(c3ccccc3)CC2c2cccc(Cl)c2)cc1 (stereo not given) | 5.08 µM | 3.95 µM |  |  | inactive | inactive |  |  | inactive | inactive |  |  |
| COc1ccc(C2CC(c3cccc(OC)c3)=NN2c2ccc(S(N)(=O)=O)cc2)cc1 (stereo not given) | inactive | 1.9 µM | inactive | inactive | inactive | inactive |  |  |  |  |  |  |
| COc1ccc(C2CC(c3cccc(C(F)(F)F)c3)=NN2c2ccc(S(N)(=O)=O)cc2)cc1 (stereo not given) |  |  | inactive | inactive | inactive | inactive | inactive | inactive |  |  |  |  |
| COc1ccc(C2CC(c3ccccc3OC)=NN2c2ccc(S(N)(=O)=O)cc2)cc1 (stereo not given) | 5.28 µM | 5.66 µM | inactive | inactive | inactive | inactive |  |  |  |  |  |  |
| NS(=O)(=O)c1ccc(N2N=C(c3ccccc3)CC2c2ccc(Br)cc2)cc1 (stereo not given) | 1.65 µM | 1.49 µM | inactive |  | inactive | inactive |  |  |  | inactive |  |  |
| COc1ccc(-c2noc(CCC(=O)N3CCC(c4cc(C)ccc4C)CC3)n2)cc1 |  |  | inactive |  | inactive |  | inactive | inactive |  | 11.9 µM | inactive |  |
| COc1ccc(-c2ccc(CCC(=O)N3CCN(c4cc(C)ccc4C)CC3)o2)cc1 |  |  | inactive | inactive | inactive | inactive | inactive | inactive |  |  |  |  |
| COc1ccc(-c2cc(CCC(=O)N3CCN(c4cc(C)ccc4C)CC3)[nH]n2)cc1 |  |  | inactive | inactive | inactive | inactive | inactive | inactive |  |  |  |  |
| COc1ccc(-c2noc(CCC(=O)N3CCN(c4cc(C)ccc4C)CC3)n2)cc1 | inactive | inactive | inactive |  |  |  |  |  |  | 2.37 µM | inactive | inactive |
| COc1ccc(C2CC(c3ccc(Br)cc3)=NN2c2ccc(S(N)(=O)=O)cc2)cc1 (stereo not given) |  |  | inactive | inactive | inactive | inactive | inactive | inactive |  |  |  |  |
| NS(=O)(=O)c1ccc(N2N=C(c3ccccc3)CC2c2ccc(Cl)cc2)cc1 (stereo not given) | 4.22 µM | 3.94 µM | inactive |  | inactive | inactive |  |  |  | inactive |  |  |
| COc1ccc(C2CC(C)=NN2c2ccc(S(N)(=O)=O)cc2)cc1 (stereo not given) |  |  |  | inactive | inactive | inactive | inactive | inactive | inactive |  |  |  |
| COc1cccc(C2CC(c3ccccc3)=NN2c2ccc(S(N)(=O)=O)cc2)c1 (stereo not given) | 4.65 µM | 4.69 µM | inactive | inactive |  | inactive |  |  |  |  |  | inactive |
| NS(=O)(=O)c1ccc(N2N=C(c3ccccc3)CC2c2cccc(Br)c2)cc1 (stereo not given) | 5.86 µM | 6.95 µM | inactive | inactive | inactive | inactive |  |  |  |  |  |  |
| Cc1ccccc1C1CC(c2ccccc2)=NN1c1ccc(S(N)(=O)=O)cc1 (stereo not given) | 14.7 µM | 15.3 µM | inactive | inactive | inactive | inactive |  |  |  |  |  |  |
| COc1ccc(C2=NN(c3ccc(S(N)(=O)=O)cc3)C(c3ccc(OC)cc3)C2)cc1 (stereo not given) | inactive |  | inactive | inactive | inactive | inactive |  | inactive |  |  |  |  |
| NS(=O)(=O)c1ccc(N2N=C(c3ccccc3)CC2c2ccccc2)cc1 (stereo not given) | 13.1 µM | 13.4 µM | inactive | inactive | inactive | inactive |  |  |  |  |  |  |
| COc1ccc(C2CC(c3ccc(C(F)(F)F)cc3)=NN2c2ccc(S(N)(=O)=O)cc2)cc1 (stereo not given) |  |  | inactive | inactive | inactive | inactive | inactive | inactive |  |  |  |  |
| COc1ccc(C2CC(c3ccc(C)cc3)=NN2c2ccc(S(N)(=O)=O)cc2)cc1 (stereo not given) | inactive | inactive | inactive | inactive | inactive | inactive |  |  |  |  |  |  |
| COc1ccc(C2CC(c3ccsc3)=NN2c2ccc(S(N)(=O)=O)cc2)cc1 (stereo not given) | 5.22 µM | 5.19 µM | inactive |  | inactive | inactive |  |  |  | inactive |  |  |
| COc1ccc(-c2ccc(CCC(=O)N3CCN(c4cc(C)ccc4C)CC3)s2)cc1 |  |  | inactive | inactive | inactive | inactive | inactive | inactive |  |  |  |  |
